Values of other authors, collected in article doi:10.1101/2023.05.15.540887, “Comparative analysis of drug-like EP300/CREBBP acetyltransferase inhibitors” (bioRxiv, 2023).

Experiments:
Parameters in all cases: method as in ref 29 (a number printed in a supplementary file, which may have a reference list of its own: not looked up in the article's list)
NCI-H460 = details: Non-SmallCellLung NCI-H460; highest log conc -4.0; NCI-60 screen data; cited from earlier work
K-562 = details: Leukemia K-562; highest log conc -4.0; NCI-60 screen data; cited from earlier work
HOP-92 = details: Non-SmallCellLung HOP-92; highest log conc -4.0; NCI-60 screen data; cited from earlier work
KM12 = details: Colon KM12; highest log conc -4.0; NCI-60 screen data; cited from earlier work
LOXIMVI = details: Melanoma LOXIMVI; highest log conc -4.0; NCI-60 screen data; cited from earlier work
MDA-MB-435 = details: Melanoma MDA-MB-435; highest log conc -4.0; NCI-60 screen data; cited from earlier work
EKVX = details: Non-SmallCellLung EKVX; highest log conc -4.0; NCI-60 screen data; cited from earlier work
SK-MEL-2 = details: Melanoma SK-MEL-2; highest log conc -4.0; NCI-60 screen data; cited from earlier work
CCRF-CEM = details: Leukemia CCRF-CEM; highest log conc -4.0; NCI-60 screen data; cited from earlier work
SK-OV-3 = details: Ovarian SK-OV-3; highest log conc -4.0; NCI-60 screen data; cited from earlier work
HT29 = details: Colon HT29; highest log conc -4.0; NCI-60 screen data; cited from earlier work
NCI-H522 = details: Non-SmallCellLung NCI-H522; highest log conc -4.0; NCI-60 screen data; cited from earlier work
M14 = details: Melanoma M14; highest log conc -4.0; NCI-60 screen data; cited from earlier work
HCC-2998 = details: Colon HCC-2998; highest log conc -4.0; NCI-60 screen data; cited from earlier work
T-47D = details: Breast T-47D; highest log conc -4.0; NCI-60 screen data; cited from earlier work
SNB-75 = details: CNS SNB-75; highest log conc -4.0; NCI-60 screen data; cited from earlier work
MALME-3M = details: Melanoma MALME-3M; highest log conc -4.0; NCI-60 screen data; cited from earlier work
OVCAR-5 = details: Ovarian OVCAR-5; highest log conc -4.0; NCI-60 screen data; cited from earlier work
HCT-116 = details: Colon HCT-116; highest log conc -4.0; NCI-60 screen data; cited from earlier work
SN12C = details: Renal SN12C; highest log conc -4.0; NCI-60 screen data; cited from earlier work
COLO205 = details: Colon COLO205; highest log conc -4.0; NCI-60 screen data; cited from earlier work

| SMILES | GI50 AVGDATA (NCI-H460) | GI50 AVGDATA (K-562) | GI50 AVGDATA (HOP-92) | GI50 AVGDATA (KM12) | GI50 AVGDATA (LOXIMVI) | GI50 AVGDATA (MDA-MB-435) | GI50 AVGDATA (EKVX) | GI50 AVGDATA (SK-MEL-2) | GI50 AVGDATA (CCRF-CEM) | GI50 AVGDATA (SK-OV-3) | GI50 AVGDATA (HT29) | GI50 AVGDATA (NCI-H522) | GI50 AVGDATA (M14) | GI50 AVGDATA (HCC-2998) | GI50 AVGDATA (T-47D) | GI50 AVGDATA (SNB-75) | GI50 AVGDATA (MALME-3M) | GI50 AVGDATA (OVCAR-5) | GI50 AVGDATA (HCT-116) | GI50 AVGDATA (SN12C) | also measured |
| --- | --- | --- | --- | --- | --- | --- | --- | --- | --- | --- | --- | --- | --- | --- | --- | --- | --- | --- | --- | --- | --- |
| COC(=O)N1c2ccc3c(nc(Cc4ccccc4)n3[C@H]3CCC[C@H](C(=O)O)C3)c2CC[C@@H]1C [FT-6876] | -4.63 | -5.3 | -5.79 | -4.79 | -5.99 | -5.07 | -4.75 | -4.46 | -5.18 | -4.77 | -5.26 | -4.95 | -5.23 | -5.08 | -5.5 | -6.37 | -5.21 | -4.51 | -4.75 | -4.76 | GI50 AVGDATA (COLO205): -5.31 |
| Cc1sc2c(c1C)C(c1ccc(Cl)cc1)=N[C@@H](CC(=O)OC(C)(C)C)c1nnc(C)n1-2 [JQ-1] | -6.22 | -7.24 | -7.74 | -6.02 | -7.17 | -6.87 | -5.93 | -5.27 | -6.11 | -6.49 | -7.01 | -7.25 | -6.11 | -6.54 | -6.67 | -7.6 | -5.32 | -4.98 | -6.51 | -5.71 | GI50 AVGDATA (COLO205): -6.84 |
| CO[C@H]1CC[C@H](n2c([C@@H]3CCCC(=O)N3c3ccc(F)c(F)c3)nc3cc(-c4c(C)noc4C)ccc32)CC1 [inobrodib] | -4.58 | -5.55 | -5.69 | -4.86 | -5.38 | -5.1 | -5.4 | -4.94 | -5.33 | -5.39 | -5.59 | -5.53 | -5.73 | -5.38 | -5.69 | -7.96 | -5.76 | -4.77 | -5 | -4.99 | GI50 AVGDATA (COLO205): -5.67 |
